Patent US20110201628A1, “HETEROCYCLIC JAK KINASE INHIBITORS” (priority 2008, published 2011)

Legend:
[1] = target: T1, C-terminal His6-tagged human JAK2 kinase (Homo sapiens, UniProt O60674); experiment: JAK2 Amplified Luminescent Proximity Homogeneous Assay (ALPHA) (Method 3); assay type: biochemical; conditions: biotinylated Tyk substrate, 20 minutes preincubation, 90 minutes at 25° C.
T1 construct: His6 (C); purchased Upstate Biotechnology, MA 14-640; host or cells: baculovirus in Sf21 cells
Experimental: Activity of purified C-terminal His6-tagged human JAK2 kinase was determined in-vitro using an Amplified Luminescent Proximity Homogeneous Assay (ALPHA) (Perkin Elmer, MA), which measures phosphorylation of a biotinylated Tyk ([…]) substrate (Cell Signaling Technology, MA, Cat #2200B). Commercially available JAK2 (amino acids 808-end, Genbank Accession number NM 004972, Upstate Biotechnology, MA, Catalog 14-640) was expressed by baculovirus in Sf21 cells and affinity purified by Ni^+2/NTA agarose.
The phosphorylation of Tyk substrate in the presence and absence of the compound of interest was determined. Briefly, 5 μl of Enzyme/Substrate/adenosine triphosphate (ATP) mix consisting of 1.44 nM JAK2, 192 nM Tyk, and 12 mM ATP in 1.2× buffer was preincubated with 2 μl of compound for 20 minutes at 25° C. […] Phosphorylated substrate was detected by an EnVision plate reader (Perkin Elmer, MA) 680 nm excitation, 520-620 nm emission. Data was graphed and IC50s calculated using Excel Fit (Microsoft).

[2] = target: T2, N-terminal GST-tagged, recombinant, human JAK2 (amino acids 831-1132) (Homo sapiens, UniProt O60674); experiment: JAK2 mobility shift assay on Caliper LC3000 (Method 2); assay type: biochemical; conditions: 0.3 nM JAK2 enzyme, 5 mM ATP, 1.5 μM SRCtide, 90 minutes room temperature
T2 construct: human JAK2 (amino acids 831-1132, PLAZA database pAZB0359); GST (N); host or cells: insect cells
Experimental: Janus kinase 2 (JAK2) activity was also determined by measuring the kinase's ability to phosphorylate a tyrosine residue within a peptide substrate using a mobility shift assay on a Caliper LC3000 reader (Caliper, Hopkinton, Mass.), which measures fluorescence of the phosphorylated and unphosphorylated substrate and calculates a ratiometric value to determine percent turnover.
To measure JAK2 kinase activity, an in-house purified enzyme was used. […] After incubation of the kinase with a FAM labeled SRCtide substrate, adenosine triphosphate (ATP), and MgCl2 for 90 minutes at room temperature, the kinase reaction was stopped by the addition of 36 mM ethylenediaminetetraacetic acid (EDTA). The reaction was performed in 384 well microtitre plates and the reaction products were detected using the Caliper LC3000 Reader.

T2 sequence (O60674 831-1132): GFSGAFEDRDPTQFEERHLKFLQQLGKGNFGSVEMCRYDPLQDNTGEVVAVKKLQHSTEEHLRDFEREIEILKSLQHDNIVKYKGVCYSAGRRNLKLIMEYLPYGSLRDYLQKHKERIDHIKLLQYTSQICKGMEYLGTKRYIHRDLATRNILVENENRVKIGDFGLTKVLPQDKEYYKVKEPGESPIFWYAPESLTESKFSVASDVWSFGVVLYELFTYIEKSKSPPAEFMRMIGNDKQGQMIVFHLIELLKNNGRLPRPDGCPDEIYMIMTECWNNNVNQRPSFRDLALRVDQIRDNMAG
T1 sequence (O60674 808-1132 limits assumed): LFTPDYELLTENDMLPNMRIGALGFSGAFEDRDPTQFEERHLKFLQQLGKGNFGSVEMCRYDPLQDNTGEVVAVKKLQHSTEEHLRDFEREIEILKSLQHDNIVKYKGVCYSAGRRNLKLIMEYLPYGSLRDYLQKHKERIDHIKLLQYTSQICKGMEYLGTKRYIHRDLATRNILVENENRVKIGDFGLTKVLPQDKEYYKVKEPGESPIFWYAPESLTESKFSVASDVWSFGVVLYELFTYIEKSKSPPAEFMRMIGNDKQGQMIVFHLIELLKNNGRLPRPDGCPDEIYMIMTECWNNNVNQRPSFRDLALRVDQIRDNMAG

IC50 [1] [nM] | IC50 [2] [nM] | SMILES
2900 |  | CC(Nc1nc(Nc2cn(C)cn2)c2cc[nH]c2n1)c1ncc(F)cc1F (single isomer, unassigned) [Example 25(a), N^2-[1-(3,5-Difluoropyridin-2-yl)ethyl]-N^4-(1-methyl-1H-imidazol-4-yl)-7H-pyrrolo[2,3-d]pyrimidine-2,4-diamine]
13700 |  | CCn1ncc2c(Nc3cn(C)cn3)nc(NC(C)c3ncc(F)cn3)nc21 (single isomer, unassigned) [Example 9(a), 1-Ethyl-N^6-[1-(5-fluoropyrimidin-2-yl)ethyl]-N^4-(1-methyl-1H-imidazol-4-yl)-1H-pyrazolo[3,4-d]pyrimidine-4,6-diamine]
 | 15000 | CC(Nc1nc(Nc2cn(C)cn2)c2cc(F)cnc2n1)c1ncc(F)cc1F (single isomer, unassigned) [Example 31(b), N^2-[1-(3,5-Difluoropyridin-2-yl)ethyl]-6-fluoro-N^4-(1-methyl-1H-imidazol-4-yl)pyrido[2,3-d]pyrimidine-2,4-diamine]
 | 35 | C[C@H](Nc1nc(Nc2cn(C)cn2)c2ccc(C(F)(F)F)nc2n1)c1ncc(F)cn1 [Example 32, N^2-[(1S)-1-(5-Fluoropyrimidin-2-yl)ethyl]-N^4-(1-methyl-1H-imidazol-4-yl)-7-(trifluoromethyl)pyrido[2,3-d]pyrimidine-2,4-diamine]
 | 13 | Cc1cc2c(Nc3cn(C)cn3)nc(N[C@@H](C)c3ncc(F)cn3)nc2[nH]1 [Example 20, N^2-[(1S)-1-(5-Fluoropyrimidin-2-yl)ethyl]-6-methyl-N^4-(1-methyl-1H-imidazol-4-yl)-7H-pyrrolo[2,3-d]pyrimidine-2,4-diamine]
